This experiment has as its target PdtaS (PdtaS-eGFP) (Mycobacterium tuberculosis, UniProt P9WGL5). The experiment in a line: biochemical.

Sequence of PdtaS (PdtaS-eGFP) (P9WGL5 whole entry): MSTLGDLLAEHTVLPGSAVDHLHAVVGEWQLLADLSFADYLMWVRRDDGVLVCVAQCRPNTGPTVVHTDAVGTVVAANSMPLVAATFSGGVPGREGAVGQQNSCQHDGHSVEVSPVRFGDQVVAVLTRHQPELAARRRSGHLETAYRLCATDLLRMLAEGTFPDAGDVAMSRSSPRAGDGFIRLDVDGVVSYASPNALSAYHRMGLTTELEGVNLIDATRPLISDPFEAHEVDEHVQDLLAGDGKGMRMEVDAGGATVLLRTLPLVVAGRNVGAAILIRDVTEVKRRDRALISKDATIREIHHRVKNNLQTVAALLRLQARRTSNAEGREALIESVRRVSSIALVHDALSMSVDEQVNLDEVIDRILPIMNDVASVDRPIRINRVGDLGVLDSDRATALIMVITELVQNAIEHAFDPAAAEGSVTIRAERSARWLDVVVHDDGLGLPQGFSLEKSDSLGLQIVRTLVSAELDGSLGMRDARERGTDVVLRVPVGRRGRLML

Broadly, the Kd is the equilibrium constant for the complex coming apart. A higher Kd goes with weaker binding. Turning to `C=CC1=C(C)C2=Cc3c(C=C)c(C)c4[n]3[Fe]([Cl])[n]3c(c(C)c(CCC(=O)O)c3=CC3=NC(=C4)C(C)=C3CCC(=O)O)=CC1=N2` [hemin], the Kd is ~17.2 nM.

For the origin of these results see publication PMC11537054, “A conserved two-component system senses intracellular iron levels and regulates redox balance in Mycobacterium spp” (Microbiology Spectrum, 2024).
